Source: US11731986B2 (Sanford Burnham Prebys Medical Discovery Institute, priority 2017, dated 2023)

Target: T1, human LMPTP-A (Homo sapiens, UniProt P24666)
T1 sequence (P24666 1-158): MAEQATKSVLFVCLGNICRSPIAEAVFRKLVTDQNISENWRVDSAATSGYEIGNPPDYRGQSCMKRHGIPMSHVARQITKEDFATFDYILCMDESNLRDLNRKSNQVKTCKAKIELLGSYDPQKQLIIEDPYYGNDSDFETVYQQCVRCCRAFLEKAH
Test: Enzyme Assay of Inhibition of LMPTP-A (phosphatase assay, OMFP or pNPP substrate)
Type: biochemical
Conditions: Bis-Tris pH 6.0, 37° C.
Summary of the method: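 Buffer 50 mM Bis-Tris pH 6.0, 1 mM DTT, 0.01% Triton X-100, 37 °C; OMFP read continuously (485/525 nm) or pNPP stopped with NaOH, 405 nm. IC50 from concentration vs % activity. Selectivity: 40 μM compound with 0.4 mM OMFP or 5 mM pNPP; reversibility: 50 nM enzyme, 10 μM compound, 5 min, 100× dilution.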

SMILES	IC50
CN1CCC(NC(=O)COc2ccc(-c3cc(NCCCN4CCCCC4)c4cnccc4n3)cc2)CC1 [N-(1-methylpiperidin-4-yl)-2-(4-(4-(3-(piperidin-1-yl)propylamino)-1,6-naphthyridin-2-yl)phenoxy)acetamide]	≥ 20 µM
CN1CCC(NC(=O)COCc2ccc(-c3cc(NCCCN4CCCCC4)c4cnccc4n3)cc2)CC1 [N-(1-methylpiperidin-4-yl)-2-((4-(4-((3-(piperidin-1-yl)propyl)amino)-1,6-naphthyridin-2-yl)benzyl)oxy)acetamide]	≤ 1 µM
CN1CCC(NC(=O)CCOc2ccc(-c3cc(NCCCN4CCCCC4)c4cnccc4n3)cc2)CC1 [N-(1-methylpiperidin-4-yl)-3-(4-(4-((3-(piperidin-1-yl)propyl)amino)-1,6-naphthyridin-2-yl)phenoxy)propanamide]	≥ 20 µM
CN1CCC(NC(=O)c2ccc(-c3cc(NCCCN4CCCCC4)c4cnccc4n3)cn2)CC1 [N-(1-methylpiperidin-4-yl)-5-(4-((3-(piperidin-1-yl)propyl)amino)-1,6-naphthyridin-2-yl)picolinamide]	1 to 20 µM
CN1CCC(NC(=O)c2cc3ccc(-c4cc(NCCCN5CCCCC5)c5cnccc5n4)cc3s2)CC1 [N-(1-methylpiperidin-4-yl)-6-(4-(3-(piperidin-1-yl)propylamino)-1,6-naphthyridin-2-yl)benzo[b]thiophene-2-carboxamide]	≤ 1 µM
CN1CCC(CCNC(=O)CCc2ccc(-c3cc(NCCCN4CCCCC4)c4cnccc4n3)cc2)CC1 [N-(2-(1-Methylpiperidin-4-yl)ethyl)-3-(4-(4-(3-(piperidin-1-yl)propylamino)-1,6-naphthyridin-2-yl)phenyl)propanamide]	≤ 1 µM
CN1CCC(CCNC(=O)COCc2ccc(-c3cc(NCCCN4CCCCC4)c4cnccc4n3)cc2)CC1 [N-(2-(1-methylpiperidin-4-yl)ethyl)-2-(4-(4-(3-(piperidin-1-yl)propylamino)-1,6-naphthyridin-2-yl)benzyloxy)acetamide]	≤ 1 µM
CN1CCC(CCNC(=O)C#Cc2ccc(-c3cc(NCCCN4CCCCC4)c4cnccc4n3)cc2)CC1 [N-(2-(1-methylpiperidin-4-yl)ethyl)-3-(4-(4-((3-(piperidin-1-yl)propyl)amino)-1,6-naphthyridin-2-yl)phenyl)propiolamide]	1 to 20 µM
CN1CCCN(CCNC(=O)CCc2ccc(-c3cc(NCCCN4CCCCC4)c4cnccc4n3)cc2)CC1 [N-(2-(4-Methyl-1,4-diazepan-1-yl)ethyl)-3-(4-(4-(3-(piperidin-1-yl)propylamino)-1,6-naphthyridin-2-yl)phenyl)propanamide]	≤ 1 µM
CN1CCCN(CCNC(=O)COCc2ccc(-c3cc(NCCCN4CCCCC4)c4cnccc4n3)cc2)CC1 [N-(2-(4-methyl-1,4-diazepan-1-yl)ethyl)-2-(4-(4-(3-(piperidin-1-yl)propylamino)-1,6-naphthyridin-2-yl)benzyloxy)acetamide]	≤ 1 µM
CN(C)CCNC(=O)c1cc2ccc(-c3cc(NCCCN4CCCCC4)c4cnccc4n3)cc2[nH]1 [N-(2-(Dimethylamino)ethyl)-6-(4-(3-(piperidin-1-yl)propylamino)-1,6-naphthyridin-2-yl)-1H-indole-2-carboxamide]	1 to 20 µM
CN(C)CCNC(=O)c1cc2cc(-c3cc(NCCCN4CCCCC4)c4cnccc4n3)ccc2n1C [N-(2-(dimethylamino)ethyl)-1-methyl-5-(4-((3-(piperidin-1-yl)propyl)amino)-1,6-naphthyridin-2-yl)-1H-indole-2-carboxamide]	≤ 1 µM
CN(C)CCNC(=O)c1ccc(-c2cc(NCCCN3CCCCC3)c3cnccc3n2)cc1 [N-(2-(dimethylamino)ethyl)-4-(4-((3-(piperidin-1-yl)propyl)amino)-1,6-naphthyridin-2-yl)benzamide]	≤ 1 µM
CN(C)CCNC(=O)c1nc2cc(-c3cc(NCCCN4CCCCC4)c4cnccc4n3)ccc2[nH]1 [N-(2-(dimethylamino)ethyl)-5-(4-(3-(piperidin-1-yl)propylamino)-1,6-naphthyridin-2-yl)-1H-benzo[d]imidazole-2-carboxamide]	≤ 1 µM
CN(C)CCNC(=O)c1nc2cc(-c3cc(Nc4ccc(CN5CCCC5)cc4)c4cnccc4n3)ccc2[nH]1 [N-(2-(dimethylamino)ethyl)-5-(4-((4-(pyrrolidin-1-ylmethyl)phenyl)amino)-1,6-naphthyridin-2-yl)-1H-benzo[d]imidazole-2-carboxamide]	≤ 1 µM
CN(C)CCNC(=O)c1cc2ccc(-c3cc(NCCCN4CCCCC4)c4cnccc4n3)cc2s1 [N-(2-(dimethylamino)ethyl)-6-(4-(3-(piperidin-1-yl)propylamino)-1,6-naphthyridin-2-yl)benzo[b]thiophene-2-carboxamide]	1 to 20 µM
CN1CCN(CCCNC(=O)c2nc3cc(-c4cc(NCCCN5CCCCC5)c5cnccc5n4)ccc3[nH]2)CC1 [N-(3-(4-methylpiperazin-1-yl)propyl)-5-(4-((3-(piperidin-1-yl)propyl)amino)-1,6-naphthyridin-2-yl)-1H-benzo[d]imidazole-2-carboxamide]	≤ 1 µM

Results, then the molecule that gave them:

IC50	SMILES
≥ 20 µM	CN1CCN(CCCNC(=O)c2nc3cc(-c4cc(Nc5ccc(CN6CCCC6)cc5)c5cnccc5n4)ccc3[nH]2)CC1 [N-(3-(4-methylpiperazin-1-yl)propyl)-5-(4-((4-(pyrrolidin-1-ylmethyl)phenyl)amino)-1,6-naphthyridin-2-yl)-1H-benzo[d]imidazole-2-carboxamide]
1 to 20 µM	O=C(NCCCN1CCCCC1)c1ccc(-c2cc(NCc3ccncc3)c3cnccc3n2)cc1 [N-(3-(Piperidin-1-yl)propyl)-4-(4-((pyridin-4-ylmethyl)amino)-1,6-naphthyridin-2-yl)benzamide]
1 to 20 µM	O=C(NCCCN1CCCCC1)c1ccc(-c2cc(NC3CCOCC3)c3cnccc3n2)cc1 [N-(3-(Piperidin-1-yl)propyl)-4-(4-((tetrahydro-2H-pyran-4-yl)amino)-1,6-naphthyridin-2-yl)benzamide]
1 to 20 µM	O=C(NCCCN1CCCCC1)c1ccc(-c2cc(NC3CCNCC3)c3cnccc3n2)cc1 [N-(3-(Piperidin-1-yl)propyl)-4-(4-(piperidin-4-ylamino)-1,6-naphthyridin-2-yl)benzamide]
1 to 20 µM	O=C(NCCCN1CCCCC1)c1ccc(-c2cc(NC3CCNC3)c3cnccc3n2)cc1 (stereo not drawn) [N-(3-(Piperidin-1-yl)propyl)-4-(4-(pyrrolidin-3-ylamino)-1,6-naphthyridin-2-yl)benzamide]
1 to 20 µM	O=C(NCCCN1CCCCC1)c1cc2ccc(-c3cc(NCCCN4CCCCC4)c4cnccc4n3)cc2[nH]1 [N-(3-(Piperidin-1-yl)propyl)-6-(4-(3-(piperidin-1-yl)propylamino)-1,6-naphthyridin-2-yl)-1H-indole-2-carboxamide]
1 to 20 µM	O=C(COCc1ccc(-c2cc(NCCCN3CCCCC3)c3cnccc3n2)cc1)NCCCN1CCCCC1 [N-(3-(piperidin-1-yl)propyl)-2-((4-(4-((3-(piperidin-1-yl)propyl)amino)-1,6-naphthyridin-2-yl)benzyl)oxy)acetamide]
1 to 20 µM	O=C(NCCCN1CCCCC1)c1cc2cc(-c3cc(NCCCN4CCCCC4)c4cnccc4n3)ccc2s1 [N-(3-(piperidin-1-yl)propyl)-5-(4-(3-(piperidin-1-yl)propylamino)-1,6-naphthyridin-2-yl)benzo[b]thiophene-2-carboxamide]
≤ 1 µM	O=C(NCCCN1CCCCC1)c1nc2cc(-c3cc(NCCCN4CCCCC4)c4cnccc4n3)ccc2[nH]1 [N-(3-(piperidin-1-yl)propyl)-5-(4-((3-(piperidin-1-yl)propyl)amino)-1,6-naphthyridin-2-yl)-1H-benzo[d]imidazole-2-carboxamide]
≥ 20 µM	O=C(NCCCN1CCCCC1)c1ccc(-c2cc(NCCCN3CCCCC3)c3cnccc3n2)cn1 [N-(3-(piperidin-1-yl)propyl)-5-(4-((3-(piperidin-1-yl)propyl)amino)-1,6-naphthyridin-2-yl)picolinamide]
≤ 1 µM	O=C(NCCCN1CCCCC1)c1nc2cc(-c3cc(Nc4ccc(CN5CCCC5)cc4)c4cnccc4n3)ccc2[nH]1 [N-(3-(piperidin-1-yl)propyl)-5-(4-((4-(pyrrolidin-1-ylmethyl)phenyl)amino)-1,6-naphthyridin-2-yl)-1H-benzo[d]imidazole-2-carboxamide]
≤ 1 µM	O=C(NCCCN1CCCCC1)c1cc2ccc(-c3cc(NCCCN4CCCCC4)c4cnccc4n3)cc2s1 [N-(3-(piperidin-1-yl)propyl)-6-(4-(3-(piperidin-1-yl)propylamino)-1,6-naphthyridin-2-yl)benzo[b]thiophene-2-carboxamide]
≤ 1 µM	CN1CCC(CNC(=O)CCc2ccc(-c3cc(NCCCN4CCCCC4)c4cnccc4n3)cc2)CC1 [N-((1-Methylpiperidin-4-yl)methyl)-3-(4-(4-(3-(piperidin-1-yl)propylamino)-1,6-naphthyridin-2-yl)phenyl)propanamide]
1 to 20 µM	CCN1CCC(CNC(=O)COCc2ccc(-c3cc(NCCCN4CCCCC4)c4cnccc4n3)cc2)CC1 [N-((1-ethylpiperidin-4-yl)methyl)-2-(4-(4-(3-(piperidin-1-yl)propylamino)-1,6-naphthyridin-2-yl)benzyloxy)acetamide]
≥ 20 µM	CCN1CCC(CNC(=O)CCOc2ccc(-c3cc(NCCCN4CCCCC4)c4cnccc4n3)cc2)CC1 [N-((1-ethylpiperidin-4-yl)methyl)-3-(4-(4-((3-(piperidin-1-yl)propyl)amino)-1,6-naphthyridin-2-yl)phenoxy)propanamide]
≤ 1 µM	CN1CCC(CNC(=O)COCc2ccc(-c3cc(NCCCN4CCCCC4)c4cnccc4n3)cc2)CC1 [N-((1-methylpiperidin-4-yl)methyl)-2-(4-(4-(3-(piperidin-1-yl)propylamino)-1,6-naphthyridin-2-yl)benzyloxy)acetamide]
